Source: ChEMBL document CHEMBL1201862, “PubChem BioAssay data set” (2004)
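Tested at 5 concentrations; 48 h exposure; 96-well plates; endpoints linearly interpolated, else capped at highest concentration. At the GI50, growth is halved.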 Active and inactive are the calls of the source. No stated cut-off is given here; in the data, active = GI50 up to about 1.1 µM and inactive = higher.

Tests used:
Test in all cases: NCI tumour cell line growth inhibition, 48 h
786-0 = tested on: 786-0
A549 = tested on: A549
BT-549 = tested on: BT-549
CCRF-CEM = tested on: CCRF-CEM
HCC 2998 = tested on: HCC 2998
HCT-116 = tested on: HCT-116
HOP-92 = tested on: HOP-92
HT-29 = tested on: HT-29
Hs-578T = tested on: Hs-578T
IGROV-1 = tested on: IGROV-1
KM12 = tested on: KM12
M14 = tested on: M14
MDA-N = tested on: MDA-N
NCI-H522 = tested on: NCI-H522
OVCAR-5 = tested on: OVCAR-5
RPMI-8226 = tested on: RPMI-8226
SF-295 = tested on: SF-295
SF-539 = tested on: SF-539
HL-60 = tested on: HL-60

Row | SMILES | GI50 (786-0) | GI50 (A549) | GI50 (BT-549) | GI50 (CCRF-CEM) | GI50 (HCC 2998) | GI50 (HCT-116) | GI50 (HOP-92) | GI50 (HT-29) | GI50 (Hs-578T) | GI50 (IGROV-1) | GI50 (KM12) | GI50 (M14) | GI50 (MDA-N) | GI50 (NCI-H522) | GI50 (OVCAR-5) | GI50 (RPMI-8226) | GI50 (SF-295) | GI50 (SF-539) | GI50 (HL-60)
1 | O=C(/C=C/c1ccc(-c2ccccc2)cc1)NCc1ccc(C(=O)NCCc2c[nH]c3ccccc23)cc1 | 11.1 µM (inactive) | 19.4 µM (inactive) | 37.2 µM (inactive) | 13.9 µM (inactive) | 83.4 µM (inactive) | 46.9 µM (inactive) | 20.1 µM (inactive) | 11.5 µM (inactive) | 38.5 µM (inactive) | 11.4 µM (inactive) | 31 µM (inactive) | 80.9 µM (inactive) | 49.2 µM (inactive) | 21.3 µM (inactive) | 11.5 µM (inactive) | 60.8 µM (inactive) | 11.1 µM (inactive) | 43.5 µM (inactive) | 
2 | COC1C(=O)CCC2(CO2)C1(O)C1(C)OC1CC=C(C)C (stereo unspecified) | 32.4 µM (inactive) | 10.6 µM (inactive) | 50.6 µM (inactive) |  | 17.7 µM (inactive) | 11.3 µM (inactive) | 25.8 µM (inactive) | 23.1 µM (inactive) | 22.1 µM (inactive) | 16.9 µM (inactive) | 16.2 µM (inactive) | 11.1 µM (inactive) | 41 µM (inactive) |  | 51.5 µM (inactive) |  | 29.8 µM (inactive) |  | 
3 | CCCSc1cc(Cl)c(C)cc1S(=O)(=O)n1ccnc1OCCCN(C)C | > 100 µM (inactive) | > 100 µM (inactive) | > 100 µM (inactive) | > 100 µM (inactive) | > 100 µM (inactive) | > 100 µM (inactive) |  | > 100 µM (inactive) | > 100 µM (inactive) | > 100 µM (inactive) | > 100 µM (inactive) | > 100 µM (inactive) | > 100 µM (inactive) | > 100 µM (inactive) | > 100 µM (inactive) |  | > 100 µM (inactive) | > 100 µM (inactive) | 
4 | CO/C(=C/C(=O)C(Cl)(Cl)Cl)CC/C(=C\C(=O)C(Cl)(Cl)Cl)OC | 22.3 µM (inactive) | 47.4 µM (inactive) | 27.9 µM (inactive) | 24.3 µM (inactive) |  | 18.8 µM (inactive) | 18.4 µM (inactive) | 25 µM (inactive) | 35.9 µM (inactive) | 16.3 µM (inactive) | 27.7 µM (inactive) | 28.2 µM (inactive) | 22.8 µM (inactive) | 20.1 µM (inactive) | 27.8 µM (inactive) | 22.3 µM (inactive) | 36.3 µM (inactive) | 23.6 µM (inactive) | 26.4 µM (inactive)
5 | CC(=O)C1(Cc2cccc3ccccc23)S(=O)(=O)OCCOS1(=O)=O | 23.5 µM (inactive) |  | 16.9 µM (inactive) | 38.7 µM (inactive) | 17.3 µM (inactive) | 19.6 µM (inactive) | 15.5 µM (inactive) | 17.5 µM (inactive) |  | 4.69 µM (inactive) | 15.4 µM (inactive) | 23.4 µM (inactive) | 11.8 µM (inactive) | 21.6 µM (inactive) | 17.6 µM (inactive) | 19.5 µM (inactive) | 0.843 µM (active) | 17.9 µM (inactive) | 15.2 µM (inactive)
6 | COC(=O)C[C@H](COCc1ccccc1)NC(=O)C[C@H](COCc1ccccc1)NC(=O)C[C@H](COCc1ccccc1)NC(=O)OC(C)(C)C | 18 µM (inactive) | 38.5 µM (inactive) | > 100 µM (inactive) | > 100 µM (inactive) |  | 14.5 µM (inactive) | 24.8 µM (inactive) | 72.8 µM (inactive) | 34.6 µM (inactive) | > 100 µM (inactive) | > 100 µM (inactive) | 54.6 µM (inactive) | > 100 µM (inactive) | 78 µM (inactive) | > 100 µM (inactive) | > 100 µM (inactive) | 88.9 µM (inactive) | 95.3 µM (inactive) | > 100 µM (inactive)
7 | CSc1nc(=O)n(CCC#N)nc1SC | 25.3 µM (inactive) | > 100 µM (inactive) | 23.5 µM (inactive) |  | 15 µM (inactive) | 16.5 µM (inactive) |  | 51.6 µM (inactive) | 27.6 µM (inactive) | > 100 µM (inactive) | > 100 µM (inactive) | 18.7 µM (inactive) | 20.4 µM (inactive) | 25.6 µM (inactive) | 41.8 µM (inactive) | 22.8 µM (inactive) | > 100 µM (inactive) | > 100 µM (inactive) | 4.19 µM (inactive)
8 | Nc1nc(Cl)c(N)c(NC23CC4CC(CC(C4)C2)C3)n1 | 1.67 µM (inactive) | 2.13 µM (inactive) | 2.25 µM (inactive) | 1.62 µM (inactive) | 2.25 µM (inactive) | 1.58 µM (inactive) | 3.89 µM (inactive) | 1.79 µM (inactive) | 4.4 µM (inactive) | 3.85 µM (inactive) | 1.73 µM (inactive) | 1.36 µM (inactive) | 1.58 µM (inactive) | 1.92 µM (inactive) | 1.4 µM (inactive) | 2.25 µM (inactive) | 2.78 µM (inactive) | 2.16 µM (inactive) | 
